Tests used:
[1] = test system: H9P46-P48 embryonic stem cells; assay: Definitive endoderm on […]: effect of GSK-3B inhibitor IX (FACS CXCR4, PCR); assay type: cell-based, human; conditions: 20 ng/ml Wnt-3a or 100-1000 nM GSK-3B inhibitor, day 5
Experimental: In order to confirm that the effect of Wnt-3a was through the Wnt pathway, a GSK-3 inhibitor was used to activate the downstream targets of Wnt, such as beta catenin. […] FIG. 29, panel a depicts the expression of CXCR4 by FACS at day 5 in the absence of Wnt-3a or GSK-3B inhibitor, b) +20 ng/ml Wnt-3a, c) +1000 nM GSK-3B inhibitor IX, d) +500 nM GSK-3B inhibitor IX, e) +100 nM GSK-3B inhibitor IX, f) +10 nM GSK-3B inhibitor IX, g) +100 nM GSK-3B inhibitor IX for days 1-2, and h) +10 nM GSK-3B inhibitor IX for days 1-2.

[2] = test system: SA002 P38 cells; assay: Differentiation of SA002 ES line on […] to definitive endoderm (real-time PCR, FACS); assay type: cell-based, human; conditions: 20 ng/ml Wnt-3a with 100 ng/ml activin A
Source text: Expression of CXCR4 is depicted in FIG. 45: a) AA treatment b) AA+Wnt-3a c) AA+GSK-3B inhibitor.

[3] = test system: human embryonic stem cell line H1; assay: FACS of protein markers after activin A treatment (Table IIC); assay type: cell-based; conditions: 5-day AA treatment
Source text: (§1) The level of expression of definitive endoderm markers was examined by PCR (FIG. 1), FACS (results summarized in Table II), and immunohistochemistry (FIG. 2).
(§2) CXCR4 positive cells were also highly positive for C-kit, EPCAM, CD99, and negative for CD9. The expression pattern for these markers was consistent among all three hES cell lines examined (Table IIB for H7 and Table IIC for H1). […] In parallel, almost 100% of the differentiated cells were […] (FIG. 2).
(§3) Adhered cells were removed from culture plates by five-minute incubation with TrypLE™ Express solution (Invitrogen, CA). Released cells were resuspended in human embryonic stem cell culture medium and recovered by centrifugation, followed by washing and resuspending the cells in a staining buffer consisting of 2% BSA, 0.05% sodium azide in PBS (Sigma, MO). As appropriate, the cells were Fc-receptor blocked for 15 minutes using a 0.1% γ-globulin (Sigma) solution. […] Controls included appropriate isotype matched antibodies, unstained cells, and cells stained only with secondary conjugated antibody. All incubations with antibodies were performed for 30 mins at 4° C. after which the cells were washed with the staining buffer. Samples that were stained with unconjugated primary antibodies were incubated for an additional 30 mins at 4° C. with secondary conjugated PE or —APC labeled antibodies. See Table I for a list of secondary antibodies used. Washed cells were pelleted and resuspended in the staining buffer, and the cell surface molecules were identified using a FACS Array (BD Biosciences) instrument, collecting at least 10,000 events.

[4] = test system: human embryonic stem cell line H9; assay: Formation of pancreatic endocrine cells expressing Nkx2.2 (PCR); assay type: cell-based
Experimental: Cells were continuously cultured for another 3 to 5 days in basal medium with retinoic acid at 1 μM, alone or with bFGF. RNA samples were harvested from cells at various time points along this process to help evaluate the directed differentiation of the cells. Furthermore, culture medium and factors were regularly removed and replenished throughout the differentiation protocol.

[5] = test system: human embryonic stem cell line H9; assay: PCR of endoderm, extraembryonic, mesoderm and ectoderm markers after activin A treatment on MEFs; assay type: cell-based
Source text: as §1
Cells were harvested at the time points indicated in FIG. 3 and assayed by PCR for the expression of genes shown (FIGS. 3, 4 and 5).
RNA extraction, purification, and CDNA synthesis: RNA samples were purified by binding to a silica-gel membrane (Rneasy Mini Kit, Qiagen, CA) in the presence of an ethanol-containing, high-salt buffer followed by washing to remove contaminants. The RNA was further purified using a TURBO DNA-free kit (Ambion, INC), and high-quality RNA was then eluted in water. Yield and purity were assessed by A260 and A280 readings on a spectrophotometer. cDNA copies were made from purified RNA using an ABI (ABI, CA) high capacity cDNA archive kit.
(§4) Final data were expressed relative to a calibrator sample.

[6] = test system: human embryonic stem cell line H9; assay: FACS of protein markers after activin A treatment, hES cells on mouse embryonic fibroblasts (Table IIA); assay type: cell-based; conditions: for CD9 protein expression / CXCR4 protein expression / ECAM protein expression / NCAM protein expression / SSEA-3 protein expression: H9, FACS
Source text: as §1, §2, §3

[7] = test system: human embryonic stem cell line H7; assay: FACS of protein markers after activin A treatment (Table IIB); assay type: cell-based
Source text: as §1, §2, §3

[8] = test system: human embryonic stem cell line H9; assay: Formation of pancreatic endocrine cells with gamma-secretase inhibitor L-685,458 (PCR); assay type: cell-based; conditions: activin A alone or in combination with retinoic acid and FGFs
Experimental: After this time interval, the cells were then treated for six days with combinations of retinoic acid and FGF as outlined in Example 2, then the culture medium was removed and replaced with medium comprising DMEM/F12 with 2% FBS, containing the γ-secretase inhibitors L-685,458 at 10 μM for three days.
as §4

[9] = test system: human embryonic stem cell line H9; conditions: activin A or retinoic acid alone
Experimental: Cultures were harvested and samples of mRNA were collected for analysis.
Cells seeded on 0.1% Matrigel (BD) coated dishes were fixed with 4% paraformaldheyde for 20 min at room temperature. Fixed cells were blocked for 1 h at room temperature with PBS/0.1%BSA/10% normal chick serum /0.5% Triton X-100 and then incubated overnight with primary antibodies in PBS/0.1%BSA/10% normal chick serum at 4° C. After three washes in PBS/0.1% BSA, fluorescent secondary antibodies at a 1:100 dilution in PBS were incubated with cells for 1 h at room temperature to allow binding. Control samples included reactions where the primary antibody was omitted or where the primary antibody was replaced with corresponding matched negative control immunoglobulins at the same concentration as the primary antibodies. […]
Real-time PCR amplification and quantitative analysis: Unless otherwise stated, all reagents were purchased from Applied Biosystems. […] For each primer/probe set, a Ct value was determined as the cycle number at which the fluorescence intensity reached a specific value in the middle of the exponential region of amplification. Relative gene expression levels were calculated using the comparative Ct method. […] The normalized amount of target was calculated as 2-ΔCt, assuming amplification to be 100% efficiency. […]

[10] = test system: human embryonic stem cell line H9; assay: CXCR4 expression by FACS, Activin A +/- Wnt3a, Example 34; assay type: cell-based; conditions: end of the 5th day, H9 passage 54
Experimental: The effect that Wnt-3a treatment has on cytokine expression was analyzed using a protein array. Cells of the human embryonic stem cell line H9 were cultured according to the methods described in Example 15. At passage 54, cells were differentiated in the presence of 100 ng/mlActivinA+/−10 ng/mlWnt3a for 2 days in 0.5% FBS DMEM/F12.
At the end of the 5th day, CXCR4 expression was determined by FACS for each treatment group.

In the case of Wnt-3a, the “number of CXCR4 positive cells” value [1] is reported as “significantly increased” and the “expression of DE markers in SA002 line” value [2] is reported as “required addition of Wnt-3A for robust expression”.

With “Activin A: activin A (a member of the TGFβ superfamily), R&D Systems; 'w/o wnt' in Table VII = 100 ng/ml Activin A without Wnt3a” the “CXCR4+” value [3] was 92.78%, the “CXCR4+/C-kit+” value [3] was 92.90% and the “CXCR4+/CD9+” value [3] was 7.03%. The “CXCR4+/CD99+” value [3] was 88.78%, the “CXCR4+/EPCAM” value [3] was 87.99% and the “increase of Nkx2.2 expression compared to samples without activin A” value ([4]; 50 ng/ml activin A with 50 ng/ml basic FGF and 1 μM Retinoic Acid) was “about 35 fold”. For the same substance, the Pdx1 expression ([4]; activin A for the first three days of culture) was “maintained Pdx1 expression at a level similar to samples containing no activin A”, the Oct4 expression ([5]; Activin A 100 ng/ml up to seven days) was “no significant decrease” and the Pdx1 gene expression ([5]; Activin A 100 ng/ml up to seven days, 0% to 2% serum) was “no Pdx1 gene expression was observed”. For the same substance, the “expression of Brachyury” value ([5]; H9, 100 ng/ml activin A) was “decreased”, the “expression of neuronal marker Zic1” value ([5]; H9, 100 ng/ml activin A) was “no effect” and the “expression of extraembryonic endoderm markers Sox7 and AFP” value ([5]; H9, 100 ng/ml activin A, 1-7 days) was “time-dependent decrease”. The “anterior endoderm markers Cerberus, Otx-1 and Hex genes” value ([5]; H9, 100 ng/ml activin A, three and five days) was “significant up regulation”, the “expression of CXCR4, GATA4, HNF-3beta, Mixl1 and Sox-17 mRNA” value ([5]; H9, 100 ng/ml activin A, two, five and eight days) was “time-dependent increase” and the “expression of E-cadherin and N-cadherin” value ([6]; FACS, following activin A treatment) was “did not change”. The CD9 protein expression ([6]; 2-DAY activin A 100 ng/ml) was 29.42%, the CXCR4 protein expression ([6]; 2-DAY activin A 100 ng/ml) was 20.2% and the ECAM protein expression ([6]; 2-DAY activin A 100 ng/ml) was 20.87%. For the same substance, the NCAM protein expression ([6]; 2-DAY activin A 100 ng/ml) was 5.04%, the SSEA-3 protein expression ([6]; 2-DAY activin A 100 ng/ml) was 92.14% and the CD9 protein expression ([6]; 5-DAY activin A 100 ng/ml) was 7.27%. The CXCR4 protein expression ([6]; 5-DAY activin A 100 ng/ml) was 55.26%, the ECAM protein expression ([6]; 5-DAY activin A 100 ng/ml) was 14.17% and the NCAM protein expression ([6]; 5-DAY activin A 100 ng/ml) was 21.1%. For the same substance, the SSEA-3 protein expression ([6]; 5-DAY activin A 100 ng/ml) was 42.9%, the CD9 protein expression ([6]; 8-DAY activin A 100 ng/ml) was 4.1% and the CXCR4 protein expression ([6]; 8-DAY activin A 100 ng/ml) was 56.92%. For the same substance, the ECAM protein expression ([6]; 8-DAY activin A 100 ng/ml) was 1.02%, the NCAM protein expression ([6]; 8-DAY activin A 100 ng/ml) was 8.86% and the SSEA-3 protein expression ([6]; 8-DAY activin A 100 ng/ml) was 22.05%. The “CXCR4 protein by FACS analysis” value ([6]; following activin A treatment) was “increase”, the “CXCR4+” value ([7]; 1-day AA 100 ng/ml) was 6% and the “CXCR4+ C-Kit+” value ([7]; 1-day AA 100 ng/ml) was 2.97%. The “CXCR4+ CD9+” value ([7]; 1-day AA 100 ng/ml) was 8.13%, the “CXCR4+ EPCAM+” value ([7]; 1-day AA 100 ng/ml) was 14.58% and the “CXCR4+” value ([7]; 3-day AA 100 ng/ml) was 38%. For the same substance, the “CXCR4+ C-Kit+” value ([7]; 3-day AA 100 ng/ml) was 31.56%, the “CXCR4+ CD9+” value ([7]; 3-day AA 100 ng/ml) was 24.11% and the “CXCR4+ EPCAM+” value ([7]; 3-day AA 100 ng/ml) was 36.67%. The “CXCR4+” value ([7]; 5-day AA 100 ng/ml) was 65.5%, the “CXCR4+ C-Kit+” value ([7]; 5-day AA 100 ng/ml) was 55.21% and the “CXCR4+ CD9+” value ([7]; 5-day AA 100 ng/ml) was 2.1%. The “CXCR4+ EPCAM+” value ([7]; 5-day AA 100 ng/ml) was 54.5%, the “expression of Ngn3 or insulin” value [8] was “did not induce” and the “expression of Pdx1” value [9] was “did not induce”. For the same substance, the “cells expressing CXCR4 (FACS)” value [10] was 1%.

— patent publication US9096832B2, “Differentiation of human embryonic stem cells” (LifeScan, Inc., priority 2007, dated 2015)
